From patent publication US10533032B2, “Crystalline form of benzylbenzene SGLT2 inhibitor” (THERACOS SUB, LLC, priority 2010, dated 2020)
Several values for one entry are separate records, joined by “and”; a condition that tells them apart may be missing. Equal entries are not always repeated.

Tests used:
[1] = Hygroscopicity test of crystalline compound 8 powder in desiccators over saturated salt solutions (weight increase, appearance); format: physicochemical; details: for Weight Increase: individual samples 1-3, listed as crystal compound 8
Experimental: The tendency toward hygroscopicity of crystalline compound 8 in powder form was tested at 75% and 92.5% relative humidity at 25° C. for up to 10 days. Reagents included: (1) water: in house, MilliQ, 18.2MΩ; (2) NaCl: AR grade; (3) KNO3: AR grade; (4) saturated NaC solution with extra NaCl solid for 25 OC/75% RH control; and (5) saturated KNO3 solution with extra KNO3 solid for 25 OC/92.5% RH control. Equipment used included (1) desiccators, 240 mm ID; and (2) weighing bottles with lids: 50 mm ID×30 mm height. The saturated salt solutions and solids were transferred into individual desiccators, and equilibrated at 25° C. at least overnight to reach the desired relative humidity readings. Four weighing bottles were placed into each desiccator, and equilibrated overnight. The empty weighing bottles were weighed and the tare weights recorded (W1). 0.5 g of crystalline compound 8 was added into three weighing bottles in each desiccator to form a thin layer with thickness of 1-2 mm. The sample weight in each bottle (W2) was recorded. One empty weighing bottle was used for blank calibration. The bottles were left in each desiccator with lids open. The lids were closed and each bottle accurately weighed on days 1, 5 and 10 (W3). The bottles were returned to each desiccator with lids open immediately after weighing. The following formula was used to calculate the weight increase: [formula] WB=the weight increase of empty weighing bottle.

[2] = format: physicochemical
Text: The crystalline compound of the present invention is also characterized by the unit cell data substantially in accordance with FIG. 7. Thermal gravimetric analysis (TGA) can also be used to characterize the crystalline compound of the present invention.

[3] = Hygroscopicity test of crystalline compound 8 powder in desiccators over saturated salt solutions (weight increase, appearance); format: physicochemical; details: for Weight Increase, Average: average of 3 samples; for Weight Increase: individual samples 1-3, listed as crystal compound 8

Weight Increase, Average ([1]; 25° C./75% RH, 1 day, average of 3 samples): 0.2447%
Weight Increase ([1]; 25° C./75% RH, 1 day): 0.3291% and 0.235% and 0.1698%
Weight Increase ([1]; 25° C./75% RH, 5 days): 0.1051% and 0.1995% and 0.1578%
Weight Increase ([1]; 25° C./75% RH, 10 days): 0.3509% and 0.2311% and 0.1957%
Appearance ([1]; 25° C./75% RH, after 5 days): White powder
Appearance ([1]; 25° C./75% RH, after 10 days): White powder
hygroscopicity ([1]; powder form, at the study conditions (75% and 92.5% RH, 25° C., up to 10 days)): low hygroscopicity
weight increases ([1]; powder samples at 75% and 92.5% relative humidity at 25° C. for 10 days): below 0.26%
thermal stability (TGA) [2]: above 200 °C
Weight Increase, Average ([3]; 25° C./75% RH, 5 days): 0.1541%
Weight Increase, Average ([3]; 25° C./75% RH, 10 days): 0.2593%
Appearance ([3]; 25° C./75% RH, after 1 day): White powder
Weight Increase, Average ([3]; 25° C./92.5% RH, 1 day): 0.119%
Weight Increase ([3]; 25° C./92.5% RH, 1 day): 0.05362% and 0.1036% and 0.1998%
Weight Increase, Average ([3]; 25° C./92.5% RH, 5 days): 0.1627%
Weight Increase ([3]; 25° C./92.5% RH, 5 days): 0.0417% and 0.2071% and 0.2394%
Weight Increase, Average ([3]; 25° C./92.5% RH, 10 days): 0.2295%
Weight Increase ([3]; 25° C./92.5% RH, 10 days): 0.2601% and 0.1633% and 0.2651%
Appearance ([3]; 25° C./92.5% RH, after 1 day): White powder
Appearance ([3]; 25° C./92.5% RH, after 5 days): White powder
Appearance ([3]; 25° C./92.5% RH, after 10 days): White powder
Structure (SMILES): OC[C@H]1O[C@@H](c2ccc(Cl)c(Cc3ccc(OCCOC4CC4)cc3)c2)[C@H](O)[C@@H](O)[C@@H]1O [crystalline compound 8, (2S,3R,4R,5S,6R)-2-(4-chloro-3-(4-(2-cyclopropoxyethoxy)benzyl)phenyl)-6-(hydroxymethyl)tetrahydro-2H-pyran-3,4,5-triol]
